According to PubChem BioAssay (NCI):
“And” between values parts separate entries of the source, which are not always exact repeats. Equal values may be shown once.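 Grown in 96-well plates, cells were treated for 48 hours with each compound at five concentrations. Insufficient inhibition: endpoint recorded as highest concentration tested. At the GI50, growth is halved. The concentration for full growth arrest is given as TGI.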

Key:
Experiment in all cases: NCI tumour cell line growth inhibition, 48 h
CAKI-1 renal = test system: CAKI-1 renal
HCC-2998 colon = test system: HCC-2998 colon
HCT-15 colon = test system: HCT-15 colon
HT29 colon = test system: HT29 colon
OVCAR-8 ovarian = test system: OVCAR-8 ovarian
RPMI-8226 leukemia = test system: RPMI-8226 leukemia
SK-OV-3 ovarian = test system: SK-OV-3 ovarian
SNB-75 CNS = test system: SNB-75 CNS
MDA-MB-231 breast = test system: MDA-MB-231 breast
SR leukemia = test system: SR leukemia

Compound | TGI (CAKI-1 renal) [µM] | TGI (HCC-2998 colon) [µM] | TGI (HCT-15 colon) | TGI (HT29 colon) [µM] | TGI (OVCAR-8 ovarian) [µM] | TGI (RPMI-8226 leukemia) [µM] | TGI (SK-OV-3 ovarian) [µM] | TGI (SNB-75 CNS) [µM] | GI50 (CAKI-1 renal) [µM] | GI50 (HCC-2998 colon) [µM] | GI50 (HCT-15 colon) [µM] | GI50 (HT29 colon) [µM] | GI50 (MDA-MB-231 breast) [µM] | TGI (MDA-MB-231 breast) | GI50 (OVCAR-8 ovarian) [µM] | GI50 (RPMI-8226 leukemia) [µM] | GI50 (SK-OV-3 ovarian) [µM] | GI50 (SNB-75 CNS) [µM] | TGI (SR leukemia) [µM] | GI50 (SR leukemia) [µM]
COC(=O)/C=C1\CCC2[C@@H](C(=O)CC3[C@]2(C)CCC[C@@]3(C)C(=O)OC)C1C (stereo partly specified) | > 100 | 97.9 | > 100 µM | 61 | 50.5 | 19.9 | 72.4 | 47.9 |  |  |  |  |  |  |  |  |  |  |  | 
Cc1nc2ccccc2c(=O)n1/N=C(\N=Nc1ccccc1)c1ccccc1Cl | 81.4 | > 100 | > 100 µM | > 100 | > 100 | > 100 | 45.8 | 82.2 |  |  |  |  |  |  |  |  |  |  |  | 
COc1cc2c3c(n(CCCN=[N+]=[N-])c(=O)c2cc1OC)-c1ccccc1C3=O | 7.77 | > 100 | > 100 µM | > 100 | > 100 | > 100 | > 100 | 8.49 | 2.13 | 94.2 | 27.4 | > 100 | > 100 | > 100 µM | 5.68 | 6.19 | > 100 | 2.53 |  | 
C[C@]12Cc3conc3C(O)=C1CC[C@@H]1C2CC[C@@]2(C)C1CC[C@@H]2O (stereo partly specified) | > 100 |  | > 100 µM | > 100 | 88.5 | 20.4 | 89 | 31.1 |  |  |  |  |  |  |  |  |  |  |  | 
O=C1CCCc2ccc([N+](=O)[O-])c(O)c21 | > 100 | > 100 | > 100 µM | > 100 | > 100 |  | > 100 | > 100 |  |  |  |  |  |  |  |  |  |  | > 100 | 
C=CC12CCCCC1CC(C(=O)OC)=C(O)C2 (stereo unspecified) | > 100 | > 100 |  | > 100 | > 100 | > 100 | > 100 | > 100 |  |  |  |  |  |  |  |  |  |  | > 100 | 
O=S1Nc2cccc(C(F)(F)F)c2S1 (stereo unspecified) | > 100 | 64.4 | 43 µM | > 100 | > 100 | > 100 | > 100 | 82.8 |  |  |  |  |  |  |  |  |  |  | > 100 | 
COc1ccc2c(n1)Sc1nc3ccccc3nc1N2 | > 100 |  | > 100 µM | > 100 | 57 | > 100 | > 100 | > 100 |  |  |  |  |  | 49.7 µM |  |  |  |  |  | 
N#CC(Sc1ccccc1)C(N)=O (stereo unspecified) | > 100 | > 100 | > 100 µM | > 100 | > 100 | > 100 | > 100 | > 100 |  |  |  |  |  |  |  |  |  |  | > 100 | 
c1cc[c]([Ge]([O]c2cccc3cccnc23)([c]2ccccc2)[c]2ccccc2)cc1 | 28.9 | 6.16 | 12.4 µM | 10.8 | 10.6 | 6.77 | 8.56 | 13.1 | 10.8 | 2.54 | 3.56 | 3.8 |  |  | 3.25 | 2.29 | 3.3 | 3.5 |  | 
O=CN/C=C/c1ccccc1 | > 100 | > 100 | > 100 µM | > 100 | > 100 | > 100 | > 100 | > 100 |  |  |  |  |  |  |  |  |  |  | > 100 | 
O=C(O)c1cnc2c(ccc3[nH]cccc32)c1=O |  | > 100 | > 100 µM | > 100 | > 100 |  | > 100 | > 100 |  |  |  |  |  |  |  |  |  |  | > 100 | 
COc1ccc2cc3c4cc(OC)c(OC)cc4ccn3c2c1 | > 100 | > 100 |  | > 100 | > 100 |  | > 100 |  |  |  |  |  |  |  |  |  |  |  | > 100 | 
O=CCCn1[nH]c(=O)ccc1=O | > 100 | > 100 | > 100 µM | > 100 | > 100 | > 100 |  | > 100 |  |  |  |  |  |  |  |  |  |  | > 100 | 
CC1OC(n2cc(F)c(=O)[nH]c2=O)CCC1=O (stereo unspecified) | > 100 | > 100 | > 100 µM | > 100 | > 100 | > 100 | > 100 | > 100 |  |  |  |  |  |  |  |  |  |  | > 100 | 
CN(C)CC1(C)CC/C(=C\c2ccc(Cl)cc2)C1=O (stereo unspecified) | > 100 | > 100 | > 100 µM | > 100 | > 100 | 43.4 |  | > 100 |  |  |  |  |  |  |  |  |  |  |  | 

Compound | TGI (CAKI-1 renal) [µM] | TGI (HCC-2998 colon) [µM] | TGI (HCT-15 colon) | TGI (HT29 colon) [µM] | TGI (OVCAR-8 ovarian) [µM] | TGI (RPMI-8226 leukemia) [µM] | TGI (SK-OV-3 ovarian) [µM] | TGI (SNB-75 CNS) [µM] | GI50 (CAKI-1 renal) [µM] | GI50 (HCC-2998 colon) [µM] | GI50 (HCT-15 colon) [µM] | GI50 (HT29 colon) [µM] | GI50 (MDA-MB-231 breast) [µM] | TGI (MDA-MB-231 breast) | GI50 (OVCAR-8 ovarian) [µM] | GI50 (RPMI-8226 leukemia) [µM] | GI50 (SK-OV-3 ovarian) [µM] | GI50 (SNB-75 CNS) [µM] | TGI (SR leukemia) [µM] | GI50 (SR leukemia) [µM]
O/N=C1/CCCC/C1=C\c1ccc(Cl)c(Cl)c1 | 99.7 | 75.3 | > 100 µM | 39.9 | > 100 |  | 86.9 | 60.1 |  |  |  |  |  |  |  |  |  |  |  | 
CC[C@]12CN3CCc4c([nH]c5ccccc45)[C@@](C(=O)OC)(c4cc5c(cc4OC)N(C)[C@H]4[C@@](O)(C(=O)OC)[C@H](OC(C)=O)[C@]6(CC)C=CCN7CC[C@]54[C@@H]76)CC(C3)[C@H]1O2 (stereo partly specified) | > 100 |  | 9.43 µM and > 28.1 µM | > 73.5 | > 100 | > 100 | > 100 | > 100 | 3.72 | 0.226 | 2.92 | 0.131 |  | 7.02 µM and > 11 µM | 0.273 | 0.138 |  |  |  | 
NC1=NN(c2ccccc2)C(=O)C1C(=O)C(=O)Nc1ccccc1 (stereo unspecified) | > 100 | > 100 | > 100 µM | > 100 | > 100 | > 100 | > 100 |  |  |  |  |  |  |  |  |  |  |  |  | 
Cc1cccc2c(=O)c3c(sc12)c(NCCCNCCO)nc1ccccc13 | 2.67 | 3.06 | 2.96 µM | 3.2 | 3.37 | 3.81 |  | 2.35 | 1.31 | 1.58 | 1.51 | 1.57 | 1.6 | 3.13 µM | 1.71 | 1.81 |  | 1.13 |  | 
COc1ccc(/C=C/c2onc3c(=O)n(C)nc(-c4ccccc4)c23)cc1 | 82.2 |  | > 100 µM | > 100 | > 100 | > 100 | > 100 |  |  |  |  |  |  |  |  |  |  |  |  | 
COc1ccc(C(=O)/C=C/c2cc(-c3ccc(OC)c(OC)c3)n[nH]2)cc1OC |  | 3.19 | 5.39 µM | 4.95 | 22.4 | 2.26 | 33.3 | 2.96 |  | 1.74 | 1.09 | 1.38 | 1.88 | 6.38 µM | 2.63 | 0.357 | 3.13 | 1.16 |  | 
C=C(C)CC(C(=O)O)c1ccc(C)cc1 (stereo unspecified) | > 100 |  | > 100 µM | > 100 | > 100 | > 100 |  | > 100 |  |  |  |  |  |  |  |  |  |  | > 100 | 
C[C@@H]1CC[C@@]2(C)OC(c3ccccc3)[C@H](CO)N2C1=O (stereo partly specified) | > 100 |  | > 100 µM | > 100 | > 100 | > 100 |  | > 100 |  |  |  |  |  |  |  |  |  |  | > 100 | 
COc1ccc(C)c2sc(N(Cc3cccnc3)C(=O)c3ccc(C#N)cc3)nc12 | > 100 | > 100 | > 100 µM | > 100 | > 100 | > 100 | > 100 |  | 47.2 | 46.6 | 30.5 | 28.5 | 38.2 | > 100 µM | 48.1 | 26.1 | > 100 |  |  | 
CC(C)N(C(=O)C12C3C4C5C3C1(C(=O)O)C5C42)C(C)C (stereo unspecified) | > 100 | > 100 | > 100 µM | > 100 | > 100 | > 100 | > 100 | > 100 |  |  |  |  |  |  |  |  |  |  |  | 
CCOC(=O)C1CC(=O)C=C2CCCCC21 (stereo unspecified) | > 100 | > 100 | > 100 µM | > 100 | > 100 | > 100 | > 100 | > 100 |  |  |  |  |  |  |  |  |  |  |  | 
CC(=O)N1c2ccccc2N(C(C)=O)C1c1ccc(C2N(C(C)=O)c3ccccc3N2C(C)=O)[nH]1 | > 100 | > 100 | > 100 µM | > 100 | > 100 | > 100 | > 100 | > 100 |  |  |  |  |  |  |  |  |  |  | > 100 | 
CCCN(CCC)c1ccc(/C=N/NC(=O)c2cccnc2)c(C)c1 | 58.7 | 32.1 | 47.8 µM | 25.2 | 44.1 | 68.7 | 46.9 | 36.1 | 19.2 | 14.3 | 11.9 | 8.54 |  |  | 18 | 19.4 | 18.1 | 12.5 | 41.7 | 8.15
COc1ccc(O)c(/C=N\Nc2ccccc2)c1 |  | 5.33 | > 100 µM | 29.9 | > 100 | 5.94 | > 100 | > 100 |  |  |  |  |  | > 100 µM |  |  |  |  |  | 
C=CCCn1nc(-c2ccccc2)oc1=O | > 100 | > 100 | > 100 µM | > 100 | > 100 |  | > 100 | > 100 |  |  |  |  |  |  |  |  |  |  | > 100 | 
CCN1/C(=C/C(C)=C/c2sc3ccc4ccccc4c3[n+]2CC)Sc2ccc3ccccc3c21 | 1.15 |  | 0.744 µM | 0.233 | 0.83 | 0.131 | 0.78 | 0.761 | 0.264 |  | 0.219 | 0.109 | 0.271 | 1.04 µM | 0.067 | < 0.0134 | 0.236 | 0.205 |  | 
